Laboratory results reported in patent publication US6737383B1, “Herbicidal oxadiazolidines” (priority 1999, dated 2004).

Key:
blackgrass = assay: Test B pre/postemergence blackgrass; assay type: in vivo, Alopecurus myosuroides
Method in brief: (§1)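 Response is a visual 0-to-10 score relative to untreated plants, where 0 means no effect and 10 means complete control, taken twelve to sixteen days after application. Treatments went onto soil at planting and onto foliage of 1- to 4-leaf plants, using a surfactant-containing non-phytotoxic solvent.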

cocklebur = assay: Test B pre/postemergence cocklebur; assay type: in vivo, Xanthium strumarium
Method in brief: as §1

velvetleaf = assay: Test B pre/postemergence velvetleaf; assay type: in vivo, Abutilon theophrasti
Method in brief: as §1

giant foxtail = assay: Test B pre/postemergence giant foxtail; assay type: in vivo, Setaria faberii
Method in brief: as §1

duck salad = assay: Test B flood test duck salad; assay type: in vivo, Heteranthera limosa
Method in brief: (§2)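 Flood test on plants grown to the 2-leaf stage; treated plants kept in greenhouse twelve to sixteen days, then visually rated against controls on a 0 (no effect) to 10 (complete control) scale.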

crabgrass = assay: Test B pre/postemergence crabgrass; assay type: in vivo, Digitaria sanguinalis
Method in brief: as §1

soybean = assay: Test B pre/postemergence soybean; assay type: in vivo, Glycine max
Method in brief: as §1

purple nutsedge = assay: Test B pre/postemergence purple nutsedge; assay type: in vivo, Cyperus rotundus
Method in brief: as §1

sugar beet = assay: Test B pre/postemergence sugar beet; assay type: in vivo, Beta vulgaris
Method in brief: as §1

corn = assay: Test B pre/postemergence corn; assay type: in vivo, Zea mays
Method in brief: as §1

pigweed = assay: Test B pre/postemergence pigweed; assay type: in vivo, Amaranthus retroflexus
Method in brief: as §1

bedstraw = assay: Test B pre/postemergence bedstraw; assay type: in vivo, Galium aparine
Method in brief: as §1

wild oat = assay: Test B pre/postemergence wild oat; assay type: in vivo, Avena fatua
Method in brief: as §1

surinam grass = assay: Test B pre/postemergence surinam grass; assay type: in vivo, Brachiaria decumbens
Method in brief: as §1

rice = assay: Test B flood test rice; assay type: in vivo, Oryza sativa
Method in brief: as §2

wheat = assay: Test B pre/postemergence wheat; assay type: in vivo, Triticum aestivum
Method in brief: as §1

[1] = Postemergence, Rate 125 g/ha, scale of 0 to 10 where 0 is no effect and 10 is complete control
[2] = Postemergence, Rate 250 g/ha, scale of 0 to 10, 0 is no effect, 10 is complete control
[3] = Postemergence, Rate 500 g/ha, scale of 0 to 10 where 0 is no effect and 10 is complete control
[4] = Preemergence, Rate 125 g/ha, scale of 0 to 10 where 0 is no effect and 10 is complete control
[5] = Preemergence, Rate 500 g/ha, scale of 0 to 10 where 0 is no effect and 10 is complete control
[6] = Rate 1000 g/ha, Preemergence, scale 0 to 10 (0 no effect, 10 complete control)
[7] = Postemergence, Rate 1000 g/ha, scale 0 to 10 (0 no effect, 10 complete control)
[8] = Pre-emergence, Rate 1000 g/ha, scale 0 to 10 (0 no effect, 10 complete control)
[9] = Rate 125 g/ha, under heading Pre-emergence, flood test species, visual evaluation after twelve to sixteen days
[10] = Rate 250 g/ha, Pre-emergence (flood test species), scale 0 to 10, 0 is no effect, 10 is complete control
[11] = Rate 500 g/ha, Pre-emergence section of Table B, 0 to 10 scale (0 no effect, 10 complete control)

SMILES: CCOP(=O)(Cn1c(=O)on(C(=O)N(c2ccc(F)cc2)C(C)C)c1=O)OCC [Compound 587]
- Plant response rating, Blackgrass (blackgrass; [1]): 3
- Blackgrass plant response rating (blackgrass; [2]): 3
- Plant response rating, Blackgrass (blackgrass; [3]): 6
- Blackgrass plant response rating (blackgrass; [4]): 3
- Blackgrass plant response rating (0 to 10 scale) (blackgrass; Preemergence, Rate 250 g/ha): 6
- Blackgrass plant response rating (blackgrass; [5]): 8
- Plant response rating, Blackgrass (blackgrass; [6]): 10
- Plant response rating, Cocklebur (cocklebur; [1]): 0
- Cocklebur plant response rating (cocklebur; [2]): 0
- Plant response rating, Cocklebur (cocklebur; [3]): 0
- Cocklebur plant response rating (cocklebur; [7]): 0
- Cocklebur plant response rating (cocklebur; [4]): 0
- Cocklebur plant response rating (0 to 10 scale) (cocklebur; Preemergence, Rate 250 g/ha): 0
- Cocklebur plant response rating (cocklebur; [5]): 0
- Plant response rating, Cocklebur (cocklebur; [6]): 0
- Plant response rating, Velvetleaf (velvetleaf; [1]): 0
- Velvetleaf plant response rating (velvetleaf; [2]): 0
- Plant response rating, Velvetleaf (velvetleaf; [3]): 0
- Velvetleaf plant response rating (velvetleaf; [7]): 2
- Velvetleaf plant response rating (velvetleaf; [4]): 0
- Velvetleaf plant response rating (velvetleaf; [5]): 2
- Plant response rating, Velvetleaf (velvetleaf; [6]): 4
- Plant response rating, Giant foxtail (giant foxtail; [1]): 0
- Giant foxtail plant response rating (giant foxtail; [2]): 0
- Plant response rating, Giant foxtail (giant foxtail; [3]): 2
- Giant foxtail plant response rating (giant foxtail; [7]): 4
- Giant foxtail plant response rating (giant foxtail; [4]): 8
- Giant foxtail plant response rating (giant foxtail; [5]): 9
- Plant response rating, Giant foxtail (giant foxtail; [6]): 10
- Ducksalad plant response rating (duck salad; [8]): 0
- Ducksalad plant response rating (0 to 10 scale, 0 is no effect, 10 is complete control) (duck salad; [9]): 0
- Ducksalad plant response rating (duck salad; [10]): 0
- Ducksalad plant response rating (duck salad; [11]): 0
- Plant response rating, Crabgrass (crabgrass; [1]): 0
- Plant response rating, Crabgrass (crabgrass; [3]): 2
- Crabgrass plant response rating (crabgrass; [7]): 3
- Crabgrass plant response rating (crabgrass; [4]): 6
- Crabgrass plant response rating (crabgrass; [5]): 9
- Plant response rating, Crabgrass (crabgrass; [6]): 10
- Plant response rating, Soybean (soybean; [1]): 4
- Soybean plant response rating (soybean; [2]): 6
- Plant response rating, Soybean (soybean; [3]): 6
- Soybean plant response rating (soybean; [7]): 6
- Soybean plant response rating (soybean; [4]): 0
- Soybean plant response rating (soybean; [5]): 2
- Plant response rating, Soybean (soybean; [6]): 2
- Plant response rating, Nutsedge (purple nutsedge; [1]): 0
- Nutsedge plant response rating (purple nutsedge; [2]): 0
- Plant response rating, Nutsedge (purple nutsedge; [3]): 0
- Nutsedge plant response rating (purple nutsedge; [7]): 0
- Nutsedge plant response rating (purple nutsedge; [4]): 0
- Nutsedge plant response rating (purple nutsedge; [5]): 0
- Plant response rating, Nutsedge (purple nutsedge; [6]): 0
- Plant response rating, Sugarbeets (sugar beet; [1]): 0
- Sugarbeets plant response rating (sugar beet; [2]): 0
- Plant response rating, Sugarbeets (sugar beet; [3]): 0
- Sugarbeets plant response rating (sugar beet; [7]): 0
- Sugarbeets plant response rating (sugar beet; [4]): 0
- Sugarbeets plant response rating (sugar beet; [5]): 0
- Plant response rating, Sugarbeets (sugar beet; [6]): 3
- Plant response rating, Corn (corn; [1]): 0
- Corn plant response rating (corn; [2]): 0
- Plant response rating, Corn (corn; [3]): 0
- Corn plant response rating (corn; [7]): 0
- Corn plant response rating (corn; [4]): 0
- Corn plant response rating (0 to 10 scale) (corn; Preemergence, Rate 250 g/ha): 0
- Corn plant response rating (corn; [5]): 0
- Plant response rating, Corn (corn; [6]): 4
- Plant response rating, Redroot pigweed (pigweed; [1]): 0
- Redroot pigweed plant response rating (pigweed; [2]): 0
- Plant response rating, Redroot pigweed (pigweed; [3]): 0
- Redroot pigweed plant response rating (pigweed; [7]): 0
- Redroot pigweed plant response rating (pigweed; [4]): 0
- Redroot pigweed plant response rating (pigweed; [5]): 2
- Plant response rating, Redroot pigweed (pigweed; [6]): 3
- Plant response rating, Bedstraw (bedstraw; [3]): 3
- Bedstraw plant response rating (bedstraw; [7]): 7
- Bedstraw plant response rating (bedstraw; [4]): 0
- Bedstraw plant response rating (bedstraw; [5]): 2
- Plant response rating, Bedstraw (bedstraw; [6]): 3
- Plant response rating, Wild oats (wild oat; [1]): 0
- Wild oats plant response rating (wild oat; [2]): 0
- Plant response rating, Wild oats (wild oat; [3]): 0
- Wild oats plant response rating (wild oat; [7]): 0
- Wild oats plant response rating (wild oat; [4]): 2
- Wild oats plant response rating (wild oat; [5]): 9
- Plant response rating, Wild oats (wild oat; [6]): 10
- Plant response rating, B. signalgrass (surinam grass; [1]): 0
- B. signalgrass plant response rating (surinam grass; [2]): 0
- Plant response rating, B. signalgrass (surinam grass; [3]): 0
- B. signalgrass plant response rating (surinam grass; [7]): 5
- B. signalgrass plant response rating (surinam grass; [4]): 0
- B. signalgrass plant response rating (0 to 10 scale, 0 is no effect, 10 is complete control) (surinam grass; Preemergence, Rate 250 g/ha): 5
- B. signalgrass plant response rating (surinam grass; [5]): 7
- Plant response rating, B. signalgrass (surinam grass; [6]): 10
- Rice plant response rating (rice; [8]): 0
- Rice plant response rating (0 to 10 scale, 0 is no effect, 10 is complete control) (rice; [9]): 0
- Rice plant response rating (rice; [10]): 0
- Rice plant response rating (rice; [11]): 0
- Plant response rating, Wheat (wheat; [1]): 0
- Wheat plant response rating (wheat; [2]): 0
- Plant response rating, Wheat (wheat; [3]): 0
- Wheat plant response rating (wheat; [7]): 3
- Wheat plant response rating (wheat; [4]): 0
- Wheat plant response rating (wheat; [5]): 3
- Plant response rating, Wheat (wheat; [6]): 7
